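Protocol summary: plate cells (96-well), add compound at 5 concentrations, incubate 48 h, interpolate endpoints linearly. TGI marks complete inhibition of growth.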
Key:
Assay in all cases: NCI tumour cell line growth inhibition, 48 h
SK-MEL-28 melanoma = test system: SK-MEL-28 melanoma
HL-60(TB) leukemia = test system: HL-60(TB) leukemia
NCI/ADR-RES ovarian = test system: NCI/ADR-RES ovarian
MALME-3M melanoma = test system: MALME-3M melanoma
P388 leukemia = test system: P388 leukemia
CCRF-CEM leukemia = test system: CCRF-CEM leukemia
RPMI-8226 leukemia = test system: RPMI-8226 leukemia
UO-31 renal = test system: UO-31 renal
NCI-H460 lung = test system: NCI-H460 lung
IGROV1 ovarian = test system: IGROV1 ovarian
UACC-62 melanoma = test system: UACC-62 melanoma
P388/ADR leukemia = test system: P388/ADR leukemia
SK-MEL-5 melanoma = test system: SK-MEL-5 melanoma
SF-539 CNS = test system: SF-539 CNS
MCF7 breast = test system: MCF7 breast
HCT-116 colon = test system: HCT-116 colon
OVCAR-4 ovarian = test system: OVCAR-4 ovarian
UACC-257 melanoma = test system: UACC-257 melanoma
COLO 205 colon = test system: COLO 205 colon
XF 498 CNS = test system: XF 498 CNS
KM12 colon = test system: KM12 colon
HT29 colon = test system: HT29 colon
SNB-75 CNS = test system: SNB-75 CNS
A549 NSCLC = test system: A549 NSCLC
MOLT-4 leukemia = test system: MOLT-4 leukemia
K-562 leukemia = test system: K-562 leukemia
KM20L2 colon = test system: KM20L2 colon
RXF 393 renal = test system: RXF 393 renal
SK-OV-3 ovarian = test system: SK-OV-3 ovarian
SF-268 CNS = test system: SF-268 CNS
U251 CNS = test system: U251 CNS
DMS 114 small cell lung = test system: DMS 114 small cell lung
SNB-78 CNS = test system: SNB-78 CNS
SNB-19 CNS = test system: SNB-19 CNS
DMS 273 small cell lung = test system: DMS 273 small cell lung
LOX IMVI melanoma = test system: LOX IMVI melanoma
A498 renal = test system: A498 renal
OVCAR-3 ovarian = test system: OVCAR-3 ovarian
SN12K1 renal = test system: SN12K1 renal
DLD-1 colon = test system: DLD-1 colon
OVCAR-5 ovarian = test system: OVCAR-5 ovarian
HCT-15 colon = test system: HCT-15 colon
HOP-18 NSCLC = test system: HOP-18 NSCLC
NCI-H23 lung = test system: NCI-H23 lung
OVCAR-8 ovarian = test system: OVCAR-8 ovarian
HOP-62 NSCLC = test system: HOP-62 NSCLC
SK-MEL-2 melanoma = test system: SK-MEL-2 melanoma
HOP-92 NSCLC = test system: HOP-92 NSCLC
SN12C renal = test system: SN12C renal
SW-620 colon = test system: SW-620 colon
HCC-2998 colon = test system: HCC-2998 colon
SF-295 CNS = test system: SF-295 CNS
M19-MEL melanoma = test system: M19-MEL melanoma
EKVX NSCLC = test system: EKVX NSCLC
NCI-H226 lung = test system: NCI-H226 lung
NCI-H522 lung = test system: NCI-H522 lung
CAKI-1 renal = test system: CAKI-1 renal

COC1C(O)C(n2ncc3c(SC)nc(SC)nc32)OC1C(O)CO (stereo not drawn)
TGI (SK-MEL-28 melanoma): > 100 µM
TGI (HL-60(TB) leukemia): > 100 µM
TGI (NCI/ADR-RES ovarian): > 100 µM
TGI (MALME-3M melanoma): > 100 µM
TGI (P388 leukemia): > 100 µM
TGI (CCRF-CEM leukemia): > 100 µM
TGI (RPMI-8226 leukemia): > 100 µM
TGI (UO-31 renal): > 100 µM
TGI (NCI-H460 lung): > 100 µM
TGI (IGROV1 ovarian): > 100 µM
TGI (UACC-62 melanoma): > 100 µM
TGI (P388/ADR leukemia): > 100 µM
TGI (SK-MEL-5 melanoma): > 100 µM
TGI (SF-539 CNS): > 100 µM
TGI (MCF7 breast): > 100 µM
TGI (HCT-116 colon): > 100 µM
TGI (OVCAR-4 ovarian): > 100 µM
TGI (UACC-257 melanoma): > 55.8 µM
TGI (COLO 205 colon): > 100 µM
TGI (XF 498 CNS): > 100 µM
TGI (KM12 colon): > 100 µM
TGI (HT29 colon): > 100 µM
TGI (SNB-75 CNS): > 100 µM
TGI (A549 NSCLC): > 100 µM
TGI (MOLT-4 leukemia): > 100 µM
TGI (K-562 leukemia): > 100 µM
TGI (KM20L2 colon): > 100 µM
TGI (RXF 393 renal): > 100 µM
TGI (SK-OV-3 ovarian): > 100 µM
TGI (SF-268 CNS): > 100 µM
TGI (U251 CNS): > 100 µM
TGI (DMS 114 small cell lung): > 100 µM
TGI (SNB-78 CNS): > 100 µM
TGI (SNB-19 CNS): > 100 µM
TGI (DMS 273 small cell lung): > 100 µM
TGI (LOX IMVI melanoma): > 100 µM
TGI (A498 renal): > 100 µM
TGI (OVCAR-3 ovarian): > 100 µM
TGI (SN12K1 renal): > 67.4 µM
TGI (DLD-1 colon): > 100 µM
TGI (OVCAR-5 ovarian): > 100 µM
TGI (HCT-15 colon): > 100 µM
TGI (HOP-18 NSCLC): > 100 µM
TGI (NCI-H23 lung): > 100 µM
TGI (OVCAR-8 ovarian): > 100 µM
TGI (HOP-62 NSCLC): > 100 µM
TGI (SK-MEL-2 melanoma): > 100 µM
TGI (HOP-92 NSCLC): > 100 µM
TGI (SN12C renal): > 100 µM
TGI (SW-620 colon): > 100 µM
TGI (HCC-2998 colon): > 100 µM
TGI (SF-295 CNS): > 100 µM
TGI (M19-MEL melanoma): > 100 µM
TGI (EKVX NSCLC): > 100 µM
TGI (NCI-H226 lung): > 100 µM
TGI (NCI-H522 lung): > 100 µM

CC(C)NC(=O)OCc1c(CO)c2c(n1C)-c1ccccc1CC2
TGI (SK-MEL-28 melanoma): 64.4 µM
TGI (HL-60(TB) leukemia): > 58.3 µM
TGI (NCI/ADR-RES ovarian): 61.4 µM
TGI (MALME-3M melanoma): > 31.6 µM
TGI (P388 leukemia): 32.7 µM
TGI (CCRF-CEM leukemia): 45.2 µM
TGI (RPMI-8226 leukemia): 49.4 µM
TGI (UO-31 renal): 71.4 µM
TGI (CAKI-1 renal): 29.7 µM
TGI (NCI-H460 lung): 67.7 µM
TGI (IGROV1 ovarian): > 77.6 µM
TGI (UACC-62 melanoma): 36.6 µM
TGI (P388/ADR leukemia): 53.9 µM
TGI (SK-MEL-5 melanoma): 71 µM
TGI (SF-539 CNS): 57.3 µM
TGI (MCF7 breast): > 100 µM
TGI (HCT-116 colon): 34 µM
TGI (OVCAR-4 ovarian): 73 µM
TGI (UACC-257 melanoma): > 100 µM
TGI (COLO 205 colon): 44.7 µM
TGI (XF 498 CNS): 31.3 µM
TGI (KM12 colon): > 86.8 µM
TGI (HT29 colon): 54.5 µM
TGI (SNB-75 CNS): > 100 µM
TGI (A549 NSCLC): > 100 µM
TGI (MOLT-4 leukemia): 48.9 µM
TGI (K-562 leukemia): 46 µM
TGI (KM20L2 colon): > 84.5 µM
TGI (RXF 393 renal): 49.6 µM
TGI (SK-OV-3 ovarian): > 100 µM
TGI (SF-268 CNS): > 100 µM
TGI (U251 CNS): > 61.4 µM
TGI (DMS 114 small cell lung): 40.7 µM
TGI (SNB-78 CNS): 86.7 µM
TGI (SNB-19 CNS): > 100 µM
TGI (DMS 273 small cell lung): 62.4 µM
TGI (LOX IMVI melanoma): 56.8 µM
TGI (A498 renal): > 100 µM
TGI (OVCAR-3 ovarian): 66.9 µM
TGI (SN12K1 renal): 35.1 µM
TGI (DLD-1 colon): 46.4 µM
TGI (OVCAR-5 ovarian): > 100 µM
TGI (HCT-15 colon): 54.6 µM
TGI (HOP-18 NSCLC): 70.1 µM
TGI (NCI-H23 lung): > 65.1 µM
TGI (OVCAR-8 ovarian): 57.6 µM
TGI (HOP-62 NSCLC): > 93.3 µM
TGI (SK-MEL-2 melanoma): > 100 µM
TGI (HOP-92 NSCLC): 53.7 µM
TGI (SN12C renal): 59.8 µM
TGI (SW-620 colon): 38.8 µM
TGI (HCC-2998 colon): 57.4 µM
TGI (SF-295 CNS): > 100 µM
TGI (M19-MEL melanoma): 59.3 µM
TGI (EKVX NSCLC): > 100 µM
TGI (NCI-H226 lung): > 64.5 µM
TGI (NCI-H522 lung): 31.3 µM
